From ChEMBL document CHEMBL1201862, “PubChem BioAssay data set” (2004)
Activity calls are given as the source filed them.

Legend:
[1] = target: Photoreceptor-specific nuclear receptor (Homo sapiens, UniProt Q9Y5X4); assay type: functional, cell-based;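 also: CHO-S cells with Gal4-NCOR and VP16-NR2E3 two-hybrid luciferase reporter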
Cytochrome P450 2C19 = Cytochrome P450 2C19 (Homo sapiens, UniProt P33261); assay: Cytochrome panel assay with activity outcomes. Panel member name: p450-cyp2c19 Compounds with AC50 equal or less than 10 uM are considered active; assay type: functional; settings: read-out: AC50
Sequence of Cytochrome P450 2C19 (P33261 whole entry, the tested form may be a part): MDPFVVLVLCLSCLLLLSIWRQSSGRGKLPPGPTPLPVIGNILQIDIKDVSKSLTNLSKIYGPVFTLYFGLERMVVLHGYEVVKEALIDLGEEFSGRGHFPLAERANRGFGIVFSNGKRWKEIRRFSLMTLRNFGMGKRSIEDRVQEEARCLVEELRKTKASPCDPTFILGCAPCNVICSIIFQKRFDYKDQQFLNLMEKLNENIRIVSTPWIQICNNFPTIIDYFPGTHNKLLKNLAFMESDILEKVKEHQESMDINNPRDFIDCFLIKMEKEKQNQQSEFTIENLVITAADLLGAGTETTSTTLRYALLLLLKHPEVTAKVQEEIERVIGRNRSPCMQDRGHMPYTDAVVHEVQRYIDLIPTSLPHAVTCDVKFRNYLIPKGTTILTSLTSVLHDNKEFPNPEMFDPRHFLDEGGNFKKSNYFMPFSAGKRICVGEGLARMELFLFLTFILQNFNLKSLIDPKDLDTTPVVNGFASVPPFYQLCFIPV

[2] = target: T1, Carboxy-terminal domain RNA polymerase II polypeptide A small phosphatase 1 (Homo sapiens, UniProt Q9GZU7); assay: CTDSP1 inhibitors, concentration-response, biochemical, absorbance readout, ultra-high-throughput screen actives (AID 540297); assay type: functional
T1 sequence (Q9GZU7 whole entry): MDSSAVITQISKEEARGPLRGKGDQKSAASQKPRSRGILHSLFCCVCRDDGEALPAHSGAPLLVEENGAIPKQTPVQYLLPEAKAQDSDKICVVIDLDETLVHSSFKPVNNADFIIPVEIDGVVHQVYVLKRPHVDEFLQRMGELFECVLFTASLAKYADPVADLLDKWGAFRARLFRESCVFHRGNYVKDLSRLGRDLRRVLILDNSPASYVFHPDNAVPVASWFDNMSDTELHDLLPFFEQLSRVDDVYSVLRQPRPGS

[3] = target: T2, Low molecular weight phosphotyrosine protein phosphatase (Homo sapiens, UniProt P24666); assay type: functional; settings: read-out: IC50_Mean
T2 sequence (P24666 whole entry): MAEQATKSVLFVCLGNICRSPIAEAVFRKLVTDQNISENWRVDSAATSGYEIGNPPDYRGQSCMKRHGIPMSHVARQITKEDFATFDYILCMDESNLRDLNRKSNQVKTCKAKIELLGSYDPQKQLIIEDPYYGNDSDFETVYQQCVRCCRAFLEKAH

[4] = target: T3, Probable nicotinate-nucleotide adenylyltransferase (Staphylococcus aureus (strain N315), UniProt P65502); assay type: functional, Staphylococcus aureus subsp. aureus N315;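 as to IC50 Mean: confirmatory dose-response retesting of NadD inhibitor hits first found in an ultra-high-throughput screen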
T3 sequence (P65502 whole entry): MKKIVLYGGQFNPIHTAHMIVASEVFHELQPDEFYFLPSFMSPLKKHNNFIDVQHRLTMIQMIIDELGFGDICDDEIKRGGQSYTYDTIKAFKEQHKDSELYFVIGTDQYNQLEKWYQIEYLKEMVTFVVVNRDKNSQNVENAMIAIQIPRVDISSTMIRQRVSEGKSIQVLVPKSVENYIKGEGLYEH

[5] = target: T3, Probable nicotinate-nucleotide adenylyltransferase; assay type: functional, Staphylococcus aureus subsp. aureus N315; settings: read-out: IC50_Mean
[6] = target: T2, Low molecular weight phosphotyrosine protein phosphatase; assay type: functional; settings: read-out: IC50_Mean; remark: listed apart in the source
Cytochrome P450 3A4 = Cytochrome P450 3A4 (Homo sapiens, UniProt P08684);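 also: CYP3A4 tested as one member of a cytochrome P450 panel screen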
Sequence of Cytochrome P450 3A4 (P08684 whole entry): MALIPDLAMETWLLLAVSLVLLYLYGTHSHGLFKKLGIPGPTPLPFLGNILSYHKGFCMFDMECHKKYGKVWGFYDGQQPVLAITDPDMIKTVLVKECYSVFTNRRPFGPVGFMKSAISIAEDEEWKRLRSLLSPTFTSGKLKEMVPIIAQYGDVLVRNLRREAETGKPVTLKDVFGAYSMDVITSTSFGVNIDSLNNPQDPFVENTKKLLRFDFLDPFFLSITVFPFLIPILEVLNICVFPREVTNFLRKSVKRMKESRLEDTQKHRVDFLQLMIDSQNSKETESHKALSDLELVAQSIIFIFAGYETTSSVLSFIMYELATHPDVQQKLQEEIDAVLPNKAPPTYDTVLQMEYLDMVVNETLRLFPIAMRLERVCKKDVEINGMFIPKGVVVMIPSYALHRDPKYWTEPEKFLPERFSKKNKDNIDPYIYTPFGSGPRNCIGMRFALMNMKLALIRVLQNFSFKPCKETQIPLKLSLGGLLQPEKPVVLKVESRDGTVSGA

[7] = bead-based luminescence quenchers, dual-tagged ARNT – biochemical, AlphaScreen, cherry-pick, artefact control for ARNT-TACC3 interaction inhibitor project, dose response (AID 651705); assay type: functional;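 also: AlphaScreen bead proximity signal that flags compounds interfering with the detection technology; potency reflects signal decrease which marks the compound as an assay artifact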
[8] = HEK293 cell viability loss – plate reader, cherry-pick, cytotoxicity control, dose response (AID 651899); assay type: functional, cell-based
[9] = target: T4, Adenosylmethionine-8-amino-7-oxononanoate aminotransferase (Mycobacterium tuberculosis, UniProt P9WQ81); assay: Mycobacterium tuberculosis BioA enzyme inhibitor Measured in Biochemical System Using Plate Reader - 2163-02_Inhibitor_Dose_CherryPick_Activity.; assay type: functional, Mycobacterium tuberculosis UT205
T4 sequence (P9WQ81 whole entry): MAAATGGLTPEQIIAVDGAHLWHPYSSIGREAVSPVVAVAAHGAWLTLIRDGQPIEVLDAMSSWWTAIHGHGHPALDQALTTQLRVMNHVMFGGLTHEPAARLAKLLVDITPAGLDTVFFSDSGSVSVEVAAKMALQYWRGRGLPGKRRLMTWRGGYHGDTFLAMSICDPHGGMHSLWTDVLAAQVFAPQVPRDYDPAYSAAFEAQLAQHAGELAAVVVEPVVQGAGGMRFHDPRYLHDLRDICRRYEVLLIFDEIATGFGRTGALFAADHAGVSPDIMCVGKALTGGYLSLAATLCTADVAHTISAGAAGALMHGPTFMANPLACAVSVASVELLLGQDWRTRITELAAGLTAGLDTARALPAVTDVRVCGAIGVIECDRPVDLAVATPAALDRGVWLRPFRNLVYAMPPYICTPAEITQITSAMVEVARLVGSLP

[10] = target: T5, Corticotropin-releasing factor receptor 2/Corticotropin-releasing factor-binding protein (Homo sapiens, UniProt P24387+Q13324); assay: Dose Response confirmation of uHTS hits for small molecule antagonists of the CRF-binding protein and CRF-R2 receptor complex.; assay type: functional; settings: read-out: IC50_Mean
T5 sequence (Q13324 whole entry): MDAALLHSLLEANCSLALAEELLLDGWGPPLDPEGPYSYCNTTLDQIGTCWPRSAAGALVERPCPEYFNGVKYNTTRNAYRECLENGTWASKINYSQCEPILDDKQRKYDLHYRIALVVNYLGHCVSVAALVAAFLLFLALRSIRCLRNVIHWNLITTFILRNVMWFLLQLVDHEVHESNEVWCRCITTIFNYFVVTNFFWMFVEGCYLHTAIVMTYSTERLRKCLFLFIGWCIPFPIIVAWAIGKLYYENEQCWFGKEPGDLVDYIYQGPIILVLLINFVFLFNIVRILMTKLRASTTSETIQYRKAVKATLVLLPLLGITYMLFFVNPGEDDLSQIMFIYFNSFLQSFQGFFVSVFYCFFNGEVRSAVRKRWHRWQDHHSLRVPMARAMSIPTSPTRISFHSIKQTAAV
T5 sequence (P24387 whole entry): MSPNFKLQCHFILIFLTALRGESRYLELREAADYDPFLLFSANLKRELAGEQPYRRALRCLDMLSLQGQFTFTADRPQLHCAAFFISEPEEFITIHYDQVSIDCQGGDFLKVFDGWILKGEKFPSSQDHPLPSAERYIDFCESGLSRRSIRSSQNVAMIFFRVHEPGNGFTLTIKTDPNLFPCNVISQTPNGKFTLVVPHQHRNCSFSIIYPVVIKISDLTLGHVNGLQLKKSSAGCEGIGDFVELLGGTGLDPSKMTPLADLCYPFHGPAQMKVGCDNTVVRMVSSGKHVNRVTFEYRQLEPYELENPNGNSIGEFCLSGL

[11] = target: T5, Corticotropin-releasing factor receptor 2/Corticotropin-releasing factor-binding protein; assay: activators of CRF receptor 2 with binding protein – uHTS hits, confirmation (AID 602473); assay type: functional; settings: read-out: EC50_Mean
[12] = blockers of CRF-binding protein–CRF-R2 complex – cell-based, uHTS hits, 384-well, dose response (AID 651639); assay type: functional, Homo sapiens; settings: read-out: IC50_Mean
Protein Wnt-3a = Protein Wnt-3a (Mus musculus, UniProt P27467); assay: antagonism of Wnt3a pathway luciferase reporter – Wnt-LIGHT cells, luminescence, selectivity assay for Gli-SUFU antagonist project, dose response (AID 651570); assay type: functional; settings: read-out: IC50_Mean;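 also: Wnt-LIGHT reporter cells stimulated with conditioned medium from Wnt3a-producing cells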
Sequence of Protein Wnt-3a (P27467 whole entry): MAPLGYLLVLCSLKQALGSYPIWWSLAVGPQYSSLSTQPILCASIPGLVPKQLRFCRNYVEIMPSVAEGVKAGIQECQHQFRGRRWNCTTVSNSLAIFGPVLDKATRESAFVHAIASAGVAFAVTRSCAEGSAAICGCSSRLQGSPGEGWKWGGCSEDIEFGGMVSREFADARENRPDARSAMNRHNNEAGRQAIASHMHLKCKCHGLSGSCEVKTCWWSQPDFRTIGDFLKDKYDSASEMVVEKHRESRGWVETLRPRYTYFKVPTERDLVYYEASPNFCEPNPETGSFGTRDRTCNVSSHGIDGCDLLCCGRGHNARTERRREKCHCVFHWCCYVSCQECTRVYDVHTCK

[13] = mammalian cell viability loss – Alamar Blue, dry powder, cytotoxicity control for antifungal single agent project, dose response (AID 602188); assay type: functional, cell-based
[14] = target: T6, Apoptotic protease-activating factor 1 (Homo sapiens, UniProt O14727); assay: SAR analysis of small molecule Activators of Apaf-1 in a Fluorescent assay.; assay type: functional; settings: read-out: EC50_Mean;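 also: caspase-3 cleavage of fluorogenic Rh110 DEVD substrate downstream of apoptosome activation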
T6 sequence (O14727 whole entry): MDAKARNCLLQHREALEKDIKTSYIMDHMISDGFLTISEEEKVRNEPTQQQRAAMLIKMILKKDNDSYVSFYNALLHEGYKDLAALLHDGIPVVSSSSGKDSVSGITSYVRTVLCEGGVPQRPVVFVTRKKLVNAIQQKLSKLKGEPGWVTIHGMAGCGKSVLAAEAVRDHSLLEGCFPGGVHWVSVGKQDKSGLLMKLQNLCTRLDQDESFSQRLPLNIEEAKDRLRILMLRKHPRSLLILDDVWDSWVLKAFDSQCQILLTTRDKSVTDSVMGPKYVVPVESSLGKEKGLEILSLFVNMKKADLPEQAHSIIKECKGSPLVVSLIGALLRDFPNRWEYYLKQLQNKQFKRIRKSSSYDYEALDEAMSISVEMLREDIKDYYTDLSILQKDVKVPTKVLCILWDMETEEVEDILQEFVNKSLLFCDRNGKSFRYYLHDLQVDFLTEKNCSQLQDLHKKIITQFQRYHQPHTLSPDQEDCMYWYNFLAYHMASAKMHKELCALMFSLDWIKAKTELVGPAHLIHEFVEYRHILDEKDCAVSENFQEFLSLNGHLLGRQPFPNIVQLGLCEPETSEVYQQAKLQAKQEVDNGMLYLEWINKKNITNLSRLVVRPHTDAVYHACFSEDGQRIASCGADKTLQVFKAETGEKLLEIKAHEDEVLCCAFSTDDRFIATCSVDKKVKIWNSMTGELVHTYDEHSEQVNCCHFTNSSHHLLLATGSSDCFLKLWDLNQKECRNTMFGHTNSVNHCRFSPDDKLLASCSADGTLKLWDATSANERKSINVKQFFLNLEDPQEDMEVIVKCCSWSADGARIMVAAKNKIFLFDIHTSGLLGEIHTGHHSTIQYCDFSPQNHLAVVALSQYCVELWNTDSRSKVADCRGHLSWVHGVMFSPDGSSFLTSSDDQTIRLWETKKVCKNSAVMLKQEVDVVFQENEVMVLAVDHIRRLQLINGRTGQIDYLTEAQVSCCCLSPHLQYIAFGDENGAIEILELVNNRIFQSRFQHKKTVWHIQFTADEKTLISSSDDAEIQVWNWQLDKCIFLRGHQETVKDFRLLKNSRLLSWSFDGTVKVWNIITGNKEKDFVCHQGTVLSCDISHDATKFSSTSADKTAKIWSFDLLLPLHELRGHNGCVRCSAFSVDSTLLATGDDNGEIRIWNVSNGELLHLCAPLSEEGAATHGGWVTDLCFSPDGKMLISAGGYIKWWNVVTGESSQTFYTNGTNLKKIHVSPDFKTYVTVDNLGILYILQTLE

[15] = target: Hepatocyte nuclear factor 4-alpha (Homo sapiens, UniProt P41235); assay type: functional, cell-based;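 also: biochemical luminescence-based dose-response counterscreen measuring inhibition of HNF4 dimerization, run alongside a screen for blockers of ABHD5–perilipin-5 interaction; split luciferase complementation of HNF4 fusion proteins in cell lysate measuring dimerization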
Sequence of Hepatocyte nuclear factor 4-alpha (P41235 whole entry, the tested form may be a part): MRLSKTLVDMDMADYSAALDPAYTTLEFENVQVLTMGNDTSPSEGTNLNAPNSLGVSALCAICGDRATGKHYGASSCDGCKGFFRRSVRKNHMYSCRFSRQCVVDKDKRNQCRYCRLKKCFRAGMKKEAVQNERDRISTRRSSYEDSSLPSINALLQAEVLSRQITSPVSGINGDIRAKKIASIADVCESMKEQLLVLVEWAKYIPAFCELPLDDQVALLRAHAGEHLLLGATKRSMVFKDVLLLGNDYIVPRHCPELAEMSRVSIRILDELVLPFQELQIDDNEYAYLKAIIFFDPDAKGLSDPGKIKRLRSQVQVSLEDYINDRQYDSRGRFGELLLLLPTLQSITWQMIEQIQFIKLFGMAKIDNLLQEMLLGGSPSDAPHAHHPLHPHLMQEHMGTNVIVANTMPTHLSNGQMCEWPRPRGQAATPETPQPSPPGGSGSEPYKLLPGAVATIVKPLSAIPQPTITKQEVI

[16] = target: T7, Rac GTPase-activating protein 1 (Homo sapiens, UniProt Q9H0H5); assay: blockers of MgcRacGAP-driven Rac1 GTP hydrolysis – biochemical, ADP Hunter fluorescence, primary and confirmatory, confirmation (AID 624330); assay type: functional
T7 sequence (Q9H0H5 whole entry): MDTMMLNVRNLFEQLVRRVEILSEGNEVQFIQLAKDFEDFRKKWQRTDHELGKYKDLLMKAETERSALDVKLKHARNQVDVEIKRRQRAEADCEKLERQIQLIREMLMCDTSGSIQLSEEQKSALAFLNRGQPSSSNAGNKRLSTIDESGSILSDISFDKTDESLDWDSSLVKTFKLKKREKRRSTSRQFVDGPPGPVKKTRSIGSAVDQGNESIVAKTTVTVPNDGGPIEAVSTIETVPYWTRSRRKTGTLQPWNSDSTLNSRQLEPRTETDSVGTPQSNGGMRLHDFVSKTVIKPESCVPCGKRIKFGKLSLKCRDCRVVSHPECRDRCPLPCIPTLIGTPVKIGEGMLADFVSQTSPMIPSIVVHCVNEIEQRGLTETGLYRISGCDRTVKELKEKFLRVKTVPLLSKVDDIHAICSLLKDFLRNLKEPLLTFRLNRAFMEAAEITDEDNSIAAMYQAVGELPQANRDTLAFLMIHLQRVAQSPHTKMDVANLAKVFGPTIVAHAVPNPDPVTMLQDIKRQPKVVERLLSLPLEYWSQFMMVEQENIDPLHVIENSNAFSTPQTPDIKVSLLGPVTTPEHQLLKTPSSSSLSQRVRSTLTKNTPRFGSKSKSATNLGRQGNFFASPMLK

[17] = target: DNA repair and recombination protein RAD54-like (Homo sapiens, UniProt Q92698); assay: RAD54 Holliday junction migration blockers – biochemical, fluorescence, cherry-picked samples, dose series, confirmation (AID 651657); assay type: functional
Sequence of DNA repair and recombination protein RAD54-like (Q92698 whole entry): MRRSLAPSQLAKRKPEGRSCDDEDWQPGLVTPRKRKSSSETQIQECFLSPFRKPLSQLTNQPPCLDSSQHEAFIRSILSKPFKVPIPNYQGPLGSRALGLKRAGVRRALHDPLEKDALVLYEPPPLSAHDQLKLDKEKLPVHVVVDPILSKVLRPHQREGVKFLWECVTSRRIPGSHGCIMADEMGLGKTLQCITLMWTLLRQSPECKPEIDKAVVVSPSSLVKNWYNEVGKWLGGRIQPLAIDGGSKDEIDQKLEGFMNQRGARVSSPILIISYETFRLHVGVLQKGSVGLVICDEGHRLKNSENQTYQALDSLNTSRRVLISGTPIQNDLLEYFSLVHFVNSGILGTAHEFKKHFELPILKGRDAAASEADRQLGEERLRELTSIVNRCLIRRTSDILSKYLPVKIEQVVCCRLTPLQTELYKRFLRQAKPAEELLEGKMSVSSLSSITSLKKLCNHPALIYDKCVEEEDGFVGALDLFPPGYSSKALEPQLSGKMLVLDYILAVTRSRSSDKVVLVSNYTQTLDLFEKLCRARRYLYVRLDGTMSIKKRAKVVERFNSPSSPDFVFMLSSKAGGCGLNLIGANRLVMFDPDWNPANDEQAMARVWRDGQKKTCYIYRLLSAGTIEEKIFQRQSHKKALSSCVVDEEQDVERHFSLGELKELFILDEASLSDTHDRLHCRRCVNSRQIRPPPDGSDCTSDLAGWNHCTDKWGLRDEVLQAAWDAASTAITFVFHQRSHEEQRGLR

[18] = target: T8, DNA repair protein RAD52 homolog (Homo sapiens, UniProt P43351); assay type: functional, biochemical
T8 sequence (P43351 whole entry): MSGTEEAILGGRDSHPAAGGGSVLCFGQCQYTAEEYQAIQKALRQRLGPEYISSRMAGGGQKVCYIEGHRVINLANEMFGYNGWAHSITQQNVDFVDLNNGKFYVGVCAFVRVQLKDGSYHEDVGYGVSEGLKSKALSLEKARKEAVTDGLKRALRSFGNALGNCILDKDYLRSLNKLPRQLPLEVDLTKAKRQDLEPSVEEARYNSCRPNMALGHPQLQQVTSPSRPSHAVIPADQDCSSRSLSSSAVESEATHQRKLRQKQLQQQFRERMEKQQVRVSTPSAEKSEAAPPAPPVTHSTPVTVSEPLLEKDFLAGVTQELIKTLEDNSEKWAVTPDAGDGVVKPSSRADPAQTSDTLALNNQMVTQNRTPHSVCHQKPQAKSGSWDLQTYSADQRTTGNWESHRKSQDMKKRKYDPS

[19] = rise of 2N DNA cells, HeLa – IC50, dose response (AID 1117349); assay type: functional, cell-based
[20] = rise of 4N DNA cells, HeLa – IC50, dose response (AID 1117351); assay type: functional, cell-based

Sequence of Photoreceptor-specific nuclear receptor (Q9Y5X4 whole entry, the tested form may be a part): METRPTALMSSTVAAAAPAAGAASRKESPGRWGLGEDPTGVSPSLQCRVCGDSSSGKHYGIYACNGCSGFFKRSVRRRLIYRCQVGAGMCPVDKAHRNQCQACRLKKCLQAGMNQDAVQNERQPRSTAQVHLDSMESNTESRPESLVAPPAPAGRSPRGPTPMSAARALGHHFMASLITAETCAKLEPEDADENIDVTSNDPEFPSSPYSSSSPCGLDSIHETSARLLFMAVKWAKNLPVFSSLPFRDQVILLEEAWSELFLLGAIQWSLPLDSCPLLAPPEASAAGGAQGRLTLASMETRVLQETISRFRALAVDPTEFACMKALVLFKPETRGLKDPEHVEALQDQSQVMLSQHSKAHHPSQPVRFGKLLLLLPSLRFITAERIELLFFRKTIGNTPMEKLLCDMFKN

Cc1cnc(NC(=O)Cc2ccc(Br)cc2)s1
IC50 [1]: 1.15 µM (active)

Cc1ccc(C(=O)NNC(=O)c2cc3cc4ccccc4nc3s2)cc1
AC50 (Cytochrome P450 2C19): 39.8 µM (inconclusive) | IC50 [2]: 4.33 µM (active) | IC50 [3]: 12.8 µM (active) | IC50 [4]: 12.1 µM (active) | IC50 [5]: 27.3 µM (active) | IC50 [6]: 52.9 µM (inactive) | AC50 (Cytochrome P450 3A4): 4.47 µM (inconclusive)

CC(=O)[C@H]1[C@@H]2C(=O)N(c3cccc(Cl)c3)C(=O)[C@@H]2[C@H]2c3ccccc3C=CN21
AC50 [7]: 122 µM (active)

COc1ccc(-c2[nH]nc3c2CN(C(=O)c2ccc(OC)c(OC)c2)CC3)cc1
AC50 [8]: 25.6 µM (active) | AC50 [9]: 0.912 µM (active)

COc1ccccc1-c1c(C)nn2c(N3CCN(c4ccccc4OC)CC3)cc(C)nc12
IC50 [10]: 12.9 µM (active) | EC50 [11]: > 53 µM (inactive) | IC50 [12]: > 20 µM (inactive)

O=C(N[C@@H]1C/C=C\C[C@H](CC(=O)N(CCO)Cc2ccccc2)C(=O)N[C@@H](Cc2c[nH]c3ccccc23)COC1=O)OCC1c2ccccc2-c2ccccc21
IC50 (Protein Wnt-3a): 8.54 µM (active)

Oc1c(C(c2ccc(Cl)cc2)N2CCCC2)ccc2cccnc12 (stereo not drawn)
AC50 [13]: 1.71 µM (active)

O=C(O)c1coc(-c2cc3ccccc3s2)n1
EC50 [14]: > 100 µM (inactive)

CC1(C)C2CCC(CN=C(N)CSS(=O)(=O)O)C1C2 (stereo not drawn)
IC50 [15]: 4.45 µM (active) | IC50 [16]: 65.3 µM (active)

CCN(CC)CCNc1ccc(CO)c2sc3ccccc3c(=O)c12 [HYCANTHONE]
AC50 [17]: 6.95 µM (active) | AC50 [18]: 9.33 µM (active) | IC50 [19]: 5.68 µM (inactive) | IC50 [20]: > 10 µM (inactive)
